The subject of this test is Burkholderia cenocepacia BC240 (cystic fibrosis isolate, MDR). The test can be described thus: MIC assay, BC240. The class given is cell-based. The conditions noted are these: for MIC BC 240: B. cenocepacia MDR; for MIC: Burkholderia cenocepacia.

Values after ≈ are worked out from the molar mass of the structure shown. Read-outs that look alike come from different tables or passages of the source.

The compound `CN(C)[C@@H]1C(O)=C(C(N)=O)C(=O)[C@@]2(O)C(O)=C3C(=O)c4c(O)cccc4C[C@H]3C[C@@H]12` [Sancycline, sancycline] showed an MIC of 4 µg/mL (≈ 9.65 µM). Also, the “MIC BC 240” value (Table 5) stood at 4 µg/mL (≈ 9.65 µM). Also, the “MIC BC 240” value (Table 7) is 4 µg/mL (≈ 9.65 µM). For the same compound, the minimal inhibitory concentration (MIC) (read-out: MIC BC 240) came to 4 µg/mL (≈ 9.65 µM).

Compound `CN(C)c1cc(NC(=O)CNC(C)(C)C)c(O)c2c1C[C@H]1C[C@H]3[C@H](N(C)C)C(O)=C(C(N)=O)C(=O)[C@@]3(O)C(O)=C1C2=O` [Tigecycline, tigecycline] gave an MIC of 16 µg/mL (≈ 27.3 µM). Besides, for the setting “Table 5”, the “MIC BC 240” value was 16 µg/mL (≈ 27.3 µM). Where the note is “Table 7”, the “MIC BC 240” value was determined as 16 µg/mL (≈ 27.3 µM). For the same compound, the MIC (read-out: MIC BC 240) came out at 16 µg/mL (≈ 27.3 µM).

As usually defined, the MIC is the least concentration at which growth counts as inhibited.
